# Measured values taken from patent US20100016274A1, “BETA-LACTAM CANNABINOID RECEPTOR MODULATORS” (priority 2006, published 2010).
# Where “and” joins values, the source holds several entries; their conditions need not be identical. Equal values may be shown once. Read-outs that look alike come from different tables or passages of the source.
# Key:
# [1] = target: T1, hCB1 (membranes from hCB1 stably transfected CHO cells) (Homo sapiens, UniProt P21554); test: Cannabinoid Receptor-1 (CB1) Functional Activity Assay, Method A (35S-GTPγS, WIN 55212-2); type: biochemical; conditions: for antagonism of WIN 55212-2 at CB1 receptors: FIGS. 3b-3d; for antagonism at CB1 receptors: FIGS. 5a, 6a, 7a, no WIN 55212-2 named in the legend; for antagonism of 3 μM WIN 55212-2 at CB1 receptors: FIGS. 5b, 6b, 7b
# T1 construct: purchased Perkin Elmer/NEN; host or cells: CHO cells, stably transfected
# T1 sequence (P21554 whole entry): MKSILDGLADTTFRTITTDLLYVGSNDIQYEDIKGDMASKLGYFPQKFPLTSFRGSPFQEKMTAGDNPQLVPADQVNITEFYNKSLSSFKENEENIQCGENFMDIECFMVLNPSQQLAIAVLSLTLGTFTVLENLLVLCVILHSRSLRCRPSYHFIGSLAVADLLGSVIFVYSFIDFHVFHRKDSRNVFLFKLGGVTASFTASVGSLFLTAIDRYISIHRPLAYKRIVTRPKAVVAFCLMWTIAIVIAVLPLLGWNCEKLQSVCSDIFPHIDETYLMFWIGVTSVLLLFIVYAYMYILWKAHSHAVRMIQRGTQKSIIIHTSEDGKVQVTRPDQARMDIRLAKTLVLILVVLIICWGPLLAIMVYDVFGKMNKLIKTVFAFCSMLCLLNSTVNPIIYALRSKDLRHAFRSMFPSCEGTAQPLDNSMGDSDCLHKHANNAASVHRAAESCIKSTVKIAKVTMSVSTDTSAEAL
# Experimental: (§1) Membranes are diluted in ice-cold assay buffer (10 mM HEPES, 100 mM NaCl, 10 mM MgCl2, 2 μM GDP, 0.2% FAF-BSA, 10 μg/mL saponin) to 38 μg membranes/mL. Dilute ^35S-GTPγ5 to 1 nM in assay buffer. […] These solutions are incubated for 30 minutes at 30° C. The filters are washed 6 times with 10 mM sodium phosphate buffer (pH 7.4) at ambient temperature. The filters are counted using a liquid scintillation counter on the ^35S channel. Each compound/concentration is run in triplicate. A positive antagonism control may be run for AM251 at the same concentrations as test compounds under the same conditions.
# [2] = target: T2, cannabinoid receptor-1 (CB1), CB1R-containing cell membrane (Homo sapiens, UniProt P21554); test: biochemical; type: binding; conditions: for Ki: displacement of 3H-CP55940 on CB1 receptors, from serial dilutions, non-linear regression
# T2 construct: purchased Applied Cell Sciences Inc, Rockville, Md
# T2 sequence (P21554 whole entry, species assumed): as the sequence (P21554 whole entry) above
# Experimental: Method A using cell membranes. A compound is dissolved in DMSO and diluted to 1 M as a stock solution. […] A CB1R-containing cell membrane (Applied Cell Sciences Inc, Rockville, Md.) is diluted with binding buffer to a protein concentration of 28 μg/ml.
# (§2) The mixture is incubated for 90 min at room temperature, then filtered through Whatman glass fiber C disc filter in a vacuum manifold. The filter is washed three times each with 2.5 ml cold wash buffer (binding buffer with only 2.5 mg/ml BSA). The vacuum-dried filter is transferred to a scintillation vial, treated with 3 ml Eco-Scint, and the radioactivity is read on a Beckman LS6500 scintillation counter from which an IC50 value is calculated. The corresponding Ki values are obtained from serial dilutions according to this method, and calculated through the use of a non-linear regression program (Graphpad Inc, San Diego, Calif.).
# [3] = target: T3, cannabinoid receptor-2 (CB2), CB2R-containing cell membrane; hCB2 receptors (Homo sapiens, UniProt P34972); test: Cannabinoid Receptor-2 (CB2) Binding Assay, Method A using cell membranes (displacement of 3H-CP55940); conditions: for IC50: displacement of 3H-CP55940 (1 nM), CB2R-containing cell membrane; for Ki: displacement of 3H-CP55940, CB2R-containing cell membrane, from serial dilutions
# T3 construct: purchased Applied Cell Sciences Inc, Rockville, Md
# T3 sequence (P34972 whole entry): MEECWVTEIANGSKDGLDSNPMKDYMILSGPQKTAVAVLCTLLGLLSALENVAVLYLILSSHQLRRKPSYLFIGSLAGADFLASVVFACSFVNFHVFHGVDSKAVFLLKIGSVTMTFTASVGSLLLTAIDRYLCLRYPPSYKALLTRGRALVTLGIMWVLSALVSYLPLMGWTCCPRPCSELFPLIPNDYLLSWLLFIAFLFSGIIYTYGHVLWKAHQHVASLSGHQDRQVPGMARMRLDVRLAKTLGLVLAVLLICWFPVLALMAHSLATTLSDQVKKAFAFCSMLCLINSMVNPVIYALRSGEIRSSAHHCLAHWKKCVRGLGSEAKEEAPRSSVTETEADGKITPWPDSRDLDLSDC
# Experimental: Method A using cell membranes. A compound is dissolved in DMSO and diluted to 1 M as a stock solution. […] A CB2R-containing cell membrane (Applied Cell Sciences Inc, Rockville, Md.) is diluted with binding buffer to a protein concentration of 28 μg/ml.
# as §2
# [4] = target: T4, hCB2 (membranes from hCB2 stably transfected CHO cells) (Homo sapiens, UniProt P34972); test: Cannabinoid Receptor-2 (CB2) Functional Activity Assay, Method A (35S-GTPγS); type: biochemical; conditions: positive control, FIG. 9a
# T4 construct: purchased Perkin Elmer/NEN; host or cells: CHO cells, stably transfected
# T4 sequence (P34972 whole entry): as above
# Experimental: as §1, with “^35S-GTPγS” for “^35S-GTPγ5”, “is” for “may be”, “AM630” for “AM251”
# [5] = target: T3, cannabinoid receptor-2 (CB2), CB2R-containing cell membrane; hCB2 receptors; test: Cannabinoid Receptor-2 (CB2) Binding Assay, Method A using cell membranes (displacement of 3H-CP55940)
# [6] = IC50, displacement of 3H-CP55940 (1 nM) on CB1 receptors
# [7] = displacement of 3H-CP55940 (1 nM) on CB1 receptors, read-out: IC50
# [8] = FIG. 8, against pre-bound CP55940 on CHO cells expressing hCB2 receptors
compound,measurement,setting,value
"Cc1c(C(=O)NN2CCCCC2)nn(-c2ccc(Cl)cc2Cl)c1-c1ccc(I)cc1 [AM251, N-(piperidin-1-yl)-1-(2,4-dichlorophenyl)-5-(4-iodophenyl)-4-methyl-1H-pyrazole-3-carboxamide, reference compound]",antagonism of WIN 55212-2 at CB1 receptors,[1],antagonism
"O=C(CN1C(=O)C(c2cccs2)C1C=Cc1ccccc1)OCc1ccccc1 (stereo not drawn) [Example 70B, Benzyl 2-[3(S*)-2-Thienyl)-4(R*)-(2-styryl)azetidin-2-on-1-yl]acetate]",IC50,[2]; [6],< 10000 nM
same,IC50,[3],~1000 nM
"CCCCCCC(C)(C)c1ccc(C2CC(O)CCC2CCCO)c(O)c1 (stereo not drawn) [CP55940, 5-(1,1-dimethylheptyl)-2-[5-hydroxy-2-(3-hydroxypropyl)-cyclohexyl]-phenol]",agonism of CB2 receptors,[4],agonism
"CC(C)(C)OC(=O)CC(C(=O)NCc1cccc(C(F)(F)F)c1)N1C(=O)C(N2C(=O)OCC2c2ccccc2)C1C=Cc1ccccc1 [Example 19F, 2(R)-(tert-Butoxycarbonylmethyl)-2-[3(S)-(4(S)-phenyloxazolidin-2-on-3-yl)-4(R)-(2-styryl)azetidin-2-on-1-yl]acetic acid N-(3-trifluoromethylbenzyl)amide]",IC50,[3],<1000 nM
"CC(C)(C)C(=O)C(C(=O)OCc1ccccc1)N1C(=O)C(c2cccs2)C1C=Cc1ccccc1 (mixture of isomers) [Example 70C, Benzyl 2(RS)-tert-Butylcarbonyl-2-[3(S*)-2-thienyl)-4(R*)-(2-styryl)azetidin-2-on-1-yl]acetate]",antagonism of WIN 55212-2 at CB1 receptors,[1],antagonism
same,antagonism at CB1 receptors,[1],antagonism
same,antagonism of 3 μM WIN 55212-2 at CB1 receptors,[1],antagonism
same,IC50,[2]; [7],1350 nM and 1400 nM
same,Ki,[2],676 nM and 670 nM
O=C(NCc1cccc(C(F)(F)F)c1)C(CCC(=O)N1CCN(CCc2ccccc2)CC1)N1C(=O)C(N2C(=O)OCC2c2ccccc2)C1C=Cc1ccccc1 (stereo not drawn) [Example 44B],IC50,[3],<1000 nM
O=C(NCc1cccc(C(F)(F)F)c1)C(CC(=O)N1CCC(N2CCCCC2)CC1)N1C(=O)C(N2C(=O)OCC2c2ccccc2)C1C=Cc1ccccc1 (stereo not drawn) [Example 31A],IC50,[3],379 nM
same,Ki,[3],253 nM
O=C(NC1(c2cccc(F)c2)CCCC1)C(CCC(=O)N1CCN(C2CCCCC2)CC1)N1C(=O)C(N2C(=O)OCC2c2ccccc2)C1C=Cc1ccccc1 (stereo not drawn) [Example 42H],IC50,[3],~10000 nM
O=C(NC1(c2ccc(Cl)cc2)CC1)C(CCC(=O)N1CCN(C2CCCCC2)CC1)N1C(=O)C(N2C(=O)OCC2c2ccccc2)C1C=Cc1ccccc1 (stereo not drawn) [Example 42I],IC50,[3],~10000 nM
"O=C(NCc1cccc(C(F)(F)F)c1F)C(CC(=O)N1CCC(N2CCCCC2)CC1)N1C(=O)C(N2C(=O)OCC2c2ccccc2)C1C=Cc1ccccc1 [Example 33G, 2(R)-[[4-(Piperidinyl)piperidinyl]carbonylmethyl]-2-[3 (S)-(4(S)-phenyloxazolidin-2-on-3-yl)-4(R)-(2-styryl)azetidin-2-on-1-yl]acetic acid N-(2-fluoro-3-trifluoromethylbenzyl)carboxamide]",IC50,[5]; [8],273 nM
same,Ki,[5]; [8],182 nM
Cc1ccc(C2(NC(=O)C(CCC(=O)N3CCN(C4CCCCC4)CC3)N3C(=O)C(N4C(=O)OCC4c4ccccc4)C3C=Cc3ccccc3)CC2)cc1 (stereo not drawn) [Example 42K],IC50,[3],~10000 nM
"CC(C)(C)OC(=O)CCC(C(=O)NCc1cccc(C(F)(F)F)c1)N1C(=O)C(N2C(=O)OCC2c2ccccc2)C1C=Cc1ccccc1 [Example 19H, 2(R)-(tert-Butoxycarbonylethyl)-2-[3 (S)-(4(S)-phenyloxazolidin-2-on-3-yl)-4(R)-(2-styryl)azetidin-2-on-1-yl]acetic acid N-(3-trifluoromethylbenzyl)amide]",IC50,[3],<1000 nM
O=C(C(CCCc1ccccc1)N1C(=O)C(N2C(=O)OCC2c2ccccc2)C1C=Cc1ccccc1)N1CCN(C2CCCCC2)CC1 (stereo not drawn) [Example 62E],IC50,[3],539 nM
same,Ki,[3],360 nM
"CC(C)(C)OC(=O)CCC(C(=O)N1CCN(CCc2ccccc2)CC1)N1C(=O)C(N2C(=O)OCC2c2ccccc2)C1C=Cc1ccccc1 [Example 19E, 2(S)-(tert-Butoxycarbonylethyl)-2-[3(S)-(4(S)-phenyloxazolidin-2-on-3-yl)-4(R)-(2-styryl)azetidin-2-on-1-yl]acetic acid N-[4-(2-phenylethyl)]piperazinamide]",IC50,[3],<10000 nM
O=C(CC(C(=O)N1CCN(CCc2ccccc2)CC1)N1C(=O)C(N2C(=O)OCC2c2ccccc2)C1C=Cc1ccccc1)NCc1cccc(C(F)(F)F)c1 (stereo not drawn) [Example 28A],IC50,[3],<10000 nM
Cc1ccc(C2(NC(=O)C(CCC(=O)N3CCN(C4CCCCC4)CC3)N3C(=O)C(N4C(=O)OCC4c4ccccc4)C3C=Cc3ccccc3)CCCC2)cc1 (stereo not drawn) [Example 42L],IC50,[3],~10000 nM
O=C(NCc1ccc(Cl)c(C(F)(F)F)c1)[C@H](CCC(=O)N1CCN(C2CCCCC2)CC1)N1C(=O)[C@@H](N2C(=O)OC[C@@H]2c2ccccc2)[C@H]1/C=C/c1ccccc1 [Example 38J],IC50,"[5]; quoted for the single-dose negative control of the CB2 functional assay, assay of the IC50 not stated",> 10000 nM
O=C(CC[C@@H](C(=O)N1CCN(C2CCCCC2)CC1)N1C(=O)[C@@H](N2C(=O)OC[C@@H]2c2ccccc2)[C@H]1/C=C/c1ccccc1)NCc1cc(F)cc(C(F)(F)F)c1 [Example 37S],antagonism of WIN 55212-2 at CB1 receptors,[1],antagonism
same,antagonism at CB1 receptors,[1],antagonism
same,antagonism of 3 μM WIN 55212-2 at CB1 receptors,[1],antagonism
same,IC50,[2]; [7],2300 nM
same,Ki,[2],1150 nM
O=C(CC[C@@H](C(=O)N1CCN(C2CCCCC2)CC1)N1C(=O)[C@@H](N2C(=O)OC[C@@H]2c2ccccc2)[C@H]1/C=C/c1ccccc1)NCc1ccc(Cl)c(C(F)(F)F)c1 [Example 37U],antagonism at CB1 receptors,[1],antagonism
same,antagonism of 3 μM WIN 55212-2 at CB1 receptors,[1],antagonism
same,IC50,[2]; [7],2100 nM
same,Ki,[2],1070 nM
O=C(NC1(c2ccc(Cl)cc2)CCCC1)C(CCC(=O)N1CCN(C2CCCCC2)CC1)N1C(=O)C(N2C(=O)OCC2c2ccccc2)C1C=Cc1ccccc1 (stereo not drawn) [Example 42J],IC50,[3],~10000 nM
COc1ccc(C2(NC(=O)C(CCC(=O)N3CCN(C4CCCCC4)CC3)N3C(=O)C(N4C(=O)OCC4c4ccccc4)C3C=Cc3ccccc3)CC2)cc1 (stereo not drawn) [Example 42M],IC50,[3],~10000 nM
CCN1CCN(C(=O)CCC(C(=O)NCc2cccc(C(F)(F)F)c2)N2C(=O)C(N3C(=O)OCC3c3ccccc3)C2C(Br)=Cc2ccccc2)CC1 (stereo not drawn) [Example 45U],IC50,[3],<10000 nM
O=C(NCc1cccc(F)c1)[C@H](CCC(=O)N1CCN(C2CCCCC2)CC1)N1C(=O)[C@@H](N2C(=O)OC[C@@H]2c2ccccc2)[C@H]1/C=C/c1ccccc1 [Example 38M],IC50,[2]; [6],~10000 nM
O=C(CC[C@@H](C(=O)N1CCN(C2CCCCC2)CC1)N1C(=O)[C@@H](N2C(=O)OC[C@@H]2c2ccccc2)[C@H]1/C=C/c1ccccc1)NCc1cccc(OC(F)(F)F)c1 [Example 37L],IC50,[2]; [6],< 10000 nM
